According to US12492173B2, “Herbicidal substituted N-tetrazolyl aryl carboxamides” (Bayer Aktiengesellschaft, priority 2019, dated 2025):

Columns and labels:
Type in all cases: in vivo
[1] = system: Echinochloa crus-galli; experiment: Pre-emergence herbicidal action, ECHCG; parameters: key to Herbicidal action against ECHCG: % activity: 100 = plants have died, 0 = like control plants; conditions: for herbicidal activity ECHCG / herbicidal action ECHCG: dosage 320 g/ha; for herbicidal activity ECHCG: scored visually after 3 weeks vs untreated controls (100% = plants have died); for Herbicidal action against ECHCG: comparative experiment
Outline: (§1)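 Seeds were covered with sandy loam soil, then received a pre-emergence surface spray of the WP- or EC-formulated compound. After 3 weeks under good greenhouse growth conditions, damage was scored visually in percent.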

[2] = system: Pharbitis purpurea; experiment: Pre-emergence herbicidal action, PHBPU; conditions: dosage 320 g/ha, scored visually after 3 weeks vs untreated controls (100% = plants have died)
Outline: as §1

[3] = system: Amaranthus retroflexus; experiment: Post-emergence herbicidal action, AMARE; parameters: key: % herbicidal action vs untreated; 100 = plants died, 0 = like control
Outline: (§2)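 Treatment: post-emergence spray, one-leaf stage. Medium: sandy loam, greenhouse. Carrier: 600–800 l/ha water, 0.2% wetting agent. Read-out: visual % activity at ~3 weeks, untreated plants as reference.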

[4] = system: Setaria viridis; experiment: Pre-emergence herbicidal action, SETVI; parameters: key to Herbicidal action against SETVI: % activity: 100 = plants have died, 0 = like control plants; conditions: for herbicidal activity SETVI / herbicidal action SETVI: dosage 320 g/ha; for herbicidal activity SETVI: scored visually after 3 weeks vs untreated controls (100% = plants have died); for Herbicidal action against SETVI: comparative experiment
Outline: as §1

[5] = system: Matricaria inodora; experiment: Pre-emergence herbicidal action, MATIN; parameters: key to Herbicidal action against MATIN: % activity: 100 = plants have died, 0 = like control plants; conditions: for herbicidal activity MATIN / herbicidal action MATIN: dosage 320 g/ha; for herbicidal activity MATIN: scored visually after 3 weeks vs untreated controls (100% = plants have died)
Outline: as §1

[6] = system: Avena fatua; experiment: Post-emergence herbicidal action, AVEFA; parameters: key: % herbicidal action vs untreated; 100 = plants died, 0 = like control
Outline: as §2

[7] = comparative experiment, post-emergence, 20 g of a.i./ha

Row | Structure (SMILES) | herbicidal activity ECHCG [1] | herbicidal activity PHBPU [2] | herbicidal action AMARE ([3]; Dosage 80 g/ha) | herbicidal activity SETVI [4] | herbicidal activity MATIN [5] | herbicidal action ECHCG [1] | herbicidal action SETVI [4] | herbicidal action MATIN [5] | herbicidal action AVEFA ([6]; Dosage 80 g/ha) | further results
1 | CCCn1nnnc1NC(=O)c1ccc(C(F)F)c(CS(C)(=O)=O)c1SC [Example 3-172] | 100% | 80% | 100 | 100% | 100% |  |  |  |  | 
2 | CCn1nnnc1NC(=O)c1ccc(C(F)(F)F)c(C[S+]([O-])CC)c1Br (centres unmarked) [Example 2-384] | 100% | 90% |  | 100% | 100% |  |  |  |  | herbicidal action AVEFA ([6]; post-emergence, dosage 80 g/ha): 90%; herbicidal action AMARE ([3]; post-emergence, dosage 80 g/ha): 90%
3 | CCSCc1c(C(F)(F)F)ccc(C(=O)Nc2nnnn2CC)c1C [Example 2-86] |  |  |  |  |  | 100% | 100% | 100% |  | herbicidal action AVEFA ([6]; post-emergence, dosage 80 g/ha): 100%; herbicidal action AMARE ([3]; post-emergence, dosage 80 g/ha): 80%
4 | CSc1c(C(=O)Nc2nnnn2C)ccc(C(F)F)c1C[S+](C)[O-] (centres unmarked) [Example 1-171] | 100% | 90% | 100 | 100% | 100% |  |  |  |  | 
5 | CSCc1c(Cl)ccc(C(=O)Nc2nnnn2C)c1Cl [Example 1-559] |  |  |  |  |  | 100% | 80% | 90% |  | herbicidal action AVEFA ([6]; post-emergence, dosage 80 g/ha): 100%; herbicidal action AMARE ([3]; post-emergence, dosage 80 g/ha): 100%
6 | CCCn1nnnc1NC(=O)c1ccc(C(F)F)c(C[S+](C)[O-])c1SC (centres unmarked) [Example 3-171] | 100% | 90% | 100 | 100% | 100% |  |  |  |  | 
7 | CCS(=O)(=O)Cc1c(C(F)(F)F)ccc(C(=O)Nc2nnnn2C)c1Br [Example 1-385] | 100% |  |  | 100% | 100% |  |  |  |  | Herbicidal action against AVEFA [6, 7]: 80; herbicidal action AVEFA ([6]; post-emergence, dosage 80 g/ha): 100%; Herbicidal action against ECHCG ([1]; 80 g of a.i./ha): 100; Herbicidal action against AMARE [3, 7]: 90; herbicidal action AMARE ([3]; post-emergence, dosage 80 g/ha): 90%; Herbicidal action against SETVI ([4]; 80 g of a.i./ha): 90; Herbicidal action against MATIN ([5]; comparative experiment, 80 g of a.i./ha): 100
8 | CCCn1nnnc1NC(=O)c1ccc(C(F)(F)F)c(CSC)c1SC [Example 3-161] |  |  | 100 |  |  | 100% | 90% | 100% | 90 | 
9 | Cn1nnnc1NC(=O)c1ccc(I)c(CS(C)(=O)=O)c1Cl [Example 1-364] | 100% | 90% | 100 | 100% | 100% |  |  |  |  | Herbicidal action against ECHCG ([1]; 20 g of a.i./ha): 90; Herbicidal action against SETVI ([4]; 20 g of a.i./ha): 100
10 | CCn1nnnc1NC(=O)c1ccc(Cl)c(CSC)c1Cl [Example 2-559] |  |  | 100 |  |  | 100% | 90% | 90% | 100 | 
11 | CCn1nnnc1NC(=O)c1ccc(C(F)(F)F)c(CS(=O)(=O)CC)c1C [Example 2-88] |  |  | 90 |  |  | 100% | 100% | 100% | 90 | 
12 | CCCn1nnnc1NC(=O)c1ccc(S(C)(=O)=O)c(CSC)c1C [Example 3-37] |  |  | 100 |  |  |  |  | 90% | 80 | 
13 | COc1c(C(=O)Nc2nnnn2C)ccc(Cl)c1CSC [Example 1-570] |  |  |  |  |  | 90% |  | 100% |  | Herbicidal action against AMARE ([3]; post-emergence, dosage 80 g/ha): 90
14 | CCCn1nnnc1NC(=O)c1ccc(C(F)(F)F)c(C[S+](C)[O-])c1OC (centres unmarked) [Example 3-135] |  |  | 100 |  |  | 100% | 100% | 100% | 100 | 
15 | CCn1nnnc1NC(=O)c1ccc(C(F)(F)F)c(CS(=O)(=O)CC)c1Cl [Example 2-301] |  |  | 80 |  |  | 100% | 100% | 100% | 90 | 
16 | CCCn1nnnc1NC(=O)c1ccc(C(F)(F)F)c(CS(=O)(=O)CC)c1Cl [Example 3-301] |  |  |  |  |  | 100% | 100% | 100% | 90 | 
